Results reported in US11793790B2, “Compositions against Candida infections” (Katholieke Universiteit Leuven, priority 2017, dated 2023).

How the values were obtained:
C. albicans biofilms = assay: Biofilm checkerboard assay (CTB metabolic activity, BEC-2, FICI); settings: for BEC-2 MCZ: 24 h
[1] = system: C. albicans biofilm cells; assay: Kinetic PI (propidium iodide) fluorescence assay on biofilms; format: cell-based, Candida albicans
[2] = cited from earlier work
[3] = system: C. glabrata biofilms (strain BG2); assay: Biofilm checkerboard assay with CFU determination (Example 9); format: cell-based, Candida glabrata; settings: on its own or in combination with DB
Method: After 1 h of adhesion at 37° C., the medium was aspirated and biofilms were washed with 100 μL PBS to remove non-adherent cells, followed by the addition of 100 μL RPMI 1640 medium. Biofilms were allowed to grow for 24 h at 37° C. To determine possible potentiation of MCZ by DB, a checkerboard assay was used. […] After 38 h of incubation at 37° C., CFU determination was performed on treated biofilms. […] Serial dilutions (10^−2, 10^−3 and 10^−4) were plated on YPD agar plates, followed by an incubation period of 24 h at 37° C. and subsequent colony counting.

[4] = system: planktonic C. glabrata cultures (strain BG2); assay: Checkerboard assay with determination of the MIC; format: cell-based, Candida glabrata
Method: A C. glabrata BG2 overnight culture, grown in YPD, was diluted to an optical density of 0.1 (approximately 10^6 cells/mL) in RPMI medium, preheated at 37° C. 90 μL of the cell suspension was added to the wells of a 96 well plate, containing 10 μL of a combination of MCZ and DB, two fold diluted across rows and columns respectively (DMSO background 2%). After both 24 h and 48 h of incubation at 37° C., absorbance was measured at 490 nm by a multimode reader (Synergy Mx multi-mode microplate reader, BioTek, USA).
Domiphen bromide (DB) is a potentiator of miconazole against C. glabrata biofilms. […] MIC values were determined using Graphpad Prism 6 (table 8).

[5] = single treatment at 50 μM, 5-10 h after treatment

Clc1ccc(COC(Cn2ccnc2)c2ccc(Cl)cc2Cl)c(Cl)c1 (racemic) [Miconazole, (RS)-1-[2-(2,4-dichlorofenyl)-2-[(2,4-dichlorofenyl)methoxy]ethyl] imidazole]
BEC-2 MCZ (C. albicans biofilms; 0 μM DB (MCZ alone)): 230 µM | BEC-2 MCZ (C. albicans biofilms; in combination with 1.56 μM DB): 150 µM | BEC-2 MCZ (C. albicans biofilms; in combination with 3.125 μM DB): 100 µM | BEC-2 MCZ (C. albicans biofilms; in combination with 6.25 μM DB): 55 µM | BEC-2 MCZ (C. albicans biofilms; in combination with 12.5 μM DB): 30 µM | BEC-2 MCZ (C. albicans biofilms; in combination with 25 μM DB): 1 µM | PI fluorescence ([1]; single treatment 150 μM, after 16 h of treatment): slight increase | solubility in water [2]: insoluble in water

CCCCCCCCCCCC[N+](C)(C)CCOc1ccccc1 [domiphen bromide, N,N-dimetyl-N-(2-phenoxyetyl)-, bromide]
PI fluorescence [1, 5]: slight increase | solubility in water [2]: highly soluble in water

CC[C@@H]([C@H](C)O)n1ncn(-c2ccc(N3CCN(c4ccc(OC[C@@H]5CO[C@@](Cn6cncn6)(c6ccc(F)cc6F)C5)cc4)CC3)cc2)c1=O [Posaconazole]
antibiofilm activity against C. glabrata biofilms [3]: no significant antibiofilm activity

benzalkonium chloride
potentiation of MCZ against planktonic C. glabrata cultures [4]: could not potentiate MCZ | PI fluorescence [1, 5]: slight increase

CC[N+](CC)(CC)CC.[Br-] [tetraethylammonium bromide]
FICI with Miconazole (C. albicans biofilms; quaternary ammonium compound combined with Miconazole): > 0.5

Clc1ccc(COC(Cn2ccnc2)c2ccc(Cl)cc2Cl)c(Cl)c1 (stereo not drawn) [miconazole nitrate]
solubility in water [2]: insoluble in water
